Source: ChEMBL document CHEMBL1909046, “DrugMatrix in vitro pharmacology data”

Tests used:
Neutrophil elastase = molecular target: T1, Neutrophil elastase (Homo sapiens, UniProt P08246); type: tissue-based;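 also: inhibition of neutrophil elastase enzyme activity, measured with a p-nitroanilide-linked peptide substrate; in other assays of this panel Not Active means under 50% inhibition at 10 µM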
T1 sequence (P08246 whole entry): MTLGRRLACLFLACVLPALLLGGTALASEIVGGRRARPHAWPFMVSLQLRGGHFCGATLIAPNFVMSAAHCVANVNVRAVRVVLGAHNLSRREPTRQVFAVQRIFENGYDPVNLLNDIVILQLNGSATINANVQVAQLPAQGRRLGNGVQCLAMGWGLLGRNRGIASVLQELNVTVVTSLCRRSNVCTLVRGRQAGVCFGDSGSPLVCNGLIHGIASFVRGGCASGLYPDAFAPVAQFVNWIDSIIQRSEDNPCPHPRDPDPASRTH

[1] = DRUGMATRIX: Sodium/nucleoside co-transporter radioligand binding (ligand: nitrobenzylthioinosine); type: cell membranes, Cavia porcellus, Dunkin-Hartley, Cerebral cortex, Membrane; conditions: Not Active = under 50% inhibition at 10 µM
[2] = molecular target: 5-hydroxytryptamine receptor 2B (Homo sapiens, UniProt P41595); type: cell membranes, CHO-K1, Membrane; conditions: cho-k1; also: in other assays of this panel Not Active means under 50% inhibition at 10 µM
[3] = molecular target: T2, Type-2 angiotensin II receptor (Homo sapiens, UniProt P50052); type: cell-based; conditions: cho-k1; also: in other assays of this panel Not Active means under 50% inhibition at 10 µM
T2 sequence (P50052 whole entry): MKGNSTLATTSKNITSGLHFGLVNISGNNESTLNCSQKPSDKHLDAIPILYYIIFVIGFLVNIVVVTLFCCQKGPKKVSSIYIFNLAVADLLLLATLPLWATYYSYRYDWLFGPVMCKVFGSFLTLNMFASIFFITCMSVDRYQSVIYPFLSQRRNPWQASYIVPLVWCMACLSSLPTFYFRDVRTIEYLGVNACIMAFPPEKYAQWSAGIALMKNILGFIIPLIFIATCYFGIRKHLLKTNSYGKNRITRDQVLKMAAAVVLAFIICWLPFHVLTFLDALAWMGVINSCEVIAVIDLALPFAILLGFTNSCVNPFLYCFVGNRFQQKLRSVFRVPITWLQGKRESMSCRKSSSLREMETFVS

[4] = molecular target: Protein phosphatase 3 catalytic subunit alpha (Homo sapiens, UniProt Q08209); parameters: species or system Escherichia coli;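 also: inhibition of calcineurin (PP2B) enzyme activity, measured with DiFMUP as the substrate; in other assays of this panel Not Active means under 50% inhibition at 10 µM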
[5] = molecular target: Sodium-dependent noradrenaline transporter (Homo sapiens, UniProt P23975); experiment: DRUGMATRIX: Norepinephrine Transporter radioligand binding (ligand: [125I] RTI-55); type: cell membranes, MDCK, Membrane; conditions: mdck; Not Active = under 50% inhibition at 10 µM
[6] = molecular target: T3, 5-hydroxytryptamine receptor 1A (Rattus norvegicus, UniProt P19327); type: cell membranes, Membrane; conditions: cho-k1; also: in other assays of this panel Not Active means under 50% inhibition at 10 µM
T3 sequence (P19327 whole entry): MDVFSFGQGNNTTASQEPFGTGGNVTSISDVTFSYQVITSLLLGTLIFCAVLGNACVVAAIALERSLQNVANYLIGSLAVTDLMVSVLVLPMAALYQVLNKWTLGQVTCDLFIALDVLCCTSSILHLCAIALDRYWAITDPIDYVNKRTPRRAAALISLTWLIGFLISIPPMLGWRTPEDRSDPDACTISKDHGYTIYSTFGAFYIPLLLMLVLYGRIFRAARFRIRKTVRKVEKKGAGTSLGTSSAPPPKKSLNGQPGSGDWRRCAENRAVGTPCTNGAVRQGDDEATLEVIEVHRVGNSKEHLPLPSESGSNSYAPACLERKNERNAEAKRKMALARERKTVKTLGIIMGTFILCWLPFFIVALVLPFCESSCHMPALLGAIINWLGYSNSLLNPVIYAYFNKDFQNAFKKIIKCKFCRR

[7] = molecular target: T4, Receptor-type tyrosine-protein phosphatase C (Homo sapiens, UniProt P08575); parameters: species or system Escherichia coli
T4 sequence (P08575 whole entry): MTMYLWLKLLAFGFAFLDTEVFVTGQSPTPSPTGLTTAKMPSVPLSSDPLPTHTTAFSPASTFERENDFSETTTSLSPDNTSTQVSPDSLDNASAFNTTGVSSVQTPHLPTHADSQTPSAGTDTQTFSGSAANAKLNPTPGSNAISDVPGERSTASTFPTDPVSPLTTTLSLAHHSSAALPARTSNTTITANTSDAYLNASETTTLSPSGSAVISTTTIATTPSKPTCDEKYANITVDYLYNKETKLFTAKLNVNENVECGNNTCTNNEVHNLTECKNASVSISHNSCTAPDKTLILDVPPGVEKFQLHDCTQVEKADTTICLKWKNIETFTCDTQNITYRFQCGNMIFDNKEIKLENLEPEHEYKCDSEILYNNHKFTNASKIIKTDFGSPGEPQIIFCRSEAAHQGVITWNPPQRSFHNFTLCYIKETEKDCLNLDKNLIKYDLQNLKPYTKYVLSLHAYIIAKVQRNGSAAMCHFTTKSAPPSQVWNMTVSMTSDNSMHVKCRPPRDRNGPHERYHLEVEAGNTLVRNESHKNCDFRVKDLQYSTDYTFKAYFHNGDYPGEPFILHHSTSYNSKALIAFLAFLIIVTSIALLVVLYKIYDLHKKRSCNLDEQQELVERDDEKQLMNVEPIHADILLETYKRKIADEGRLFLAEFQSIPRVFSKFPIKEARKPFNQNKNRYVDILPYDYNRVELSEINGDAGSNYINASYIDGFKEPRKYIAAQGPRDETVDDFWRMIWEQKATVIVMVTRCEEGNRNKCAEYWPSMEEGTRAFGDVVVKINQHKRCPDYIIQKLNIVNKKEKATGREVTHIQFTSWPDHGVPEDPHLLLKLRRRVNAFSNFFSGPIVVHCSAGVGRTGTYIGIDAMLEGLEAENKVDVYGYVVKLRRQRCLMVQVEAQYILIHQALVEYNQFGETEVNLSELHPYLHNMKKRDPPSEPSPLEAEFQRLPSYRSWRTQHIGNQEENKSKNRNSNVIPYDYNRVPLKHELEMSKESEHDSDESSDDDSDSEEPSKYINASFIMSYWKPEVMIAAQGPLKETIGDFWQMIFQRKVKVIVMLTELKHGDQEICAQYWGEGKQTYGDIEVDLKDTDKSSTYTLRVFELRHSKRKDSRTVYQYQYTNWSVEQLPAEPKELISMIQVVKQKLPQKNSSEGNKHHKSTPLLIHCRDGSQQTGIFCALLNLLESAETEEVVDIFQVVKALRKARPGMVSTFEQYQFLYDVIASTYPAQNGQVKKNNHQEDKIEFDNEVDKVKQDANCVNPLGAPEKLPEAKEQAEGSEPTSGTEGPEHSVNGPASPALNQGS

Sequence of 5-hydroxytryptamine receptor 2B (P41595 whole entry): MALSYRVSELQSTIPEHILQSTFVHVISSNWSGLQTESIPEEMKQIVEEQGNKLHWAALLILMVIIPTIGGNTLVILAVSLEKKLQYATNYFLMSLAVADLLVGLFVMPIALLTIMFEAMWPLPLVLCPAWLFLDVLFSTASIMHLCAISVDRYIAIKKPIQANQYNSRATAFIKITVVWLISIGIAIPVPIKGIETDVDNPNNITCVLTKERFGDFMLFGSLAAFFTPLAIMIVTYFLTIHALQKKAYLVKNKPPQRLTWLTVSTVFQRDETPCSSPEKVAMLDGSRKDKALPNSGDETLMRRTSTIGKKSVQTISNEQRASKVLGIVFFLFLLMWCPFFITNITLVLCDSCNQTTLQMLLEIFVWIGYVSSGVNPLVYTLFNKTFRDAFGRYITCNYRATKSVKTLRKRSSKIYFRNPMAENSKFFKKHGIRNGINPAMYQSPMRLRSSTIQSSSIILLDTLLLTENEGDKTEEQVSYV
Sequence of Sodium-dependent noradrenaline transporter (P23975 whole entry): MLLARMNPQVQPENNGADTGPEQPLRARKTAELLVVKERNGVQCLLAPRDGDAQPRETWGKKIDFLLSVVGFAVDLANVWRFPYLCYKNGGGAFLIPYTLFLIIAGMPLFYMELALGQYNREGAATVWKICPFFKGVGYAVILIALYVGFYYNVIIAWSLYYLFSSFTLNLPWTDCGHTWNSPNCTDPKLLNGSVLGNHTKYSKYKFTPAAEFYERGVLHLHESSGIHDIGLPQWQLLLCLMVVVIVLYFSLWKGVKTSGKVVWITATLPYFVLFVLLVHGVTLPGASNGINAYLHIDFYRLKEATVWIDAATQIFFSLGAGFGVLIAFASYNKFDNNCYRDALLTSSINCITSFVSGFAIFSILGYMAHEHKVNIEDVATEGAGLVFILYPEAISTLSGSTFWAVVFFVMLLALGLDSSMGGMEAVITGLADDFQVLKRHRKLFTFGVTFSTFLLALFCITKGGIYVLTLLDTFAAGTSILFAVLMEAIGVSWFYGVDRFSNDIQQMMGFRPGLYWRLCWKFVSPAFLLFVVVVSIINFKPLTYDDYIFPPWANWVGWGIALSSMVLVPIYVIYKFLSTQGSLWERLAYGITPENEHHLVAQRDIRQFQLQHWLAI

CC1=C(C(=O)O)N2C(=O)[C@@H](NC(=O)[C@H](N)c3ccccc3)[C@H]2SC1 [CEPHALEXIN ANHYDROUS]
Not Active: IC50 (Neutrophil elastase) | IC50 [1] | Ki [1] | IC50 [2] | IC50 [3] | IC50 [4] | IC50 [5] | IC50 [6] | IC50 [7]

O=C(N[C@H](CO)[C@H](O)c1ccc([N+](=O)[O-])cc1)C(Cl)Cl [CHLORAMPHENICOL]
Not Active: IC50 (Neutrophil elastase) | IC50 [1] | Ki [1] | IC50 [2] | IC50 [3] | IC50 [4] | IC50 [5] | IC50 [6] | IC50 [7]

ClC(Cl)Cl [CHLOROFORM]
Not Active: IC50 (Neutrophil elastase) | IC50 [1] | Ki [1] | IC50 [2] | IC50 [3] | IC50 [4] | IC50 [5] | IC50 [6] | IC50 [7]

C=C1CC[C@H](O)C/C1=C/C=C1\CCC[C@]2(C)[C@@H]([C@H](C)CCCC(C)C)CC[C@@H]12 [CHOLECALCIFEROL]
Not Active: IC50 (Neutrophil elastase) | IC50 [1] | Ki [1] | IC50 [2] | IC50 [3] | IC50 [4] | IC50 [5] | IC50 [6] | IC50 [7]

C[N+](C)(C)CCO.[Cl-] [CHOLINE CHLORIDE]
Not Active: IC50 (Neutrophil elastase) | IC50 [1] | Ki [1] | IC50 [2] | IC50 [3] | IC50 [4] | IC50 [5] | IC50 [6] | IC50 [7]

CCOC(=O)C(C)(C)Oc1ccc(Cl)cc1 [CLOFIBRATE]
Not Active: IC50 (Neutrophil elastase) | IC50 [1] | Ki [1] | IC50 [2] | IC50 [3] | IC50 [4] | IC50 [5] | IC50 [6] | IC50 [7]

CC(=O)OCC(=O)[C@@]1(O)CC[C@H]2[C@@H]3CCC4=CC(=O)CC[C@]4(C)[C@H]3C(=O)C[C@@]21C [CORTISONE ACETATE]
Not Active: IC50 (Neutrophil elastase) | IC50 [1] | Ki [1] | IC50 [2] | IC50 [3] | IC50 [4] | IC50 [5] | IC50 [6] | IC50 [7]

O=c1ccc2ccccc2o1 [COUMARIN]
Not Active: IC50 (Neutrophil elastase) | IC50 [1] | Ki [1] | Ki [2] | IC50 [3] | IC50 [4] | IC50 [5] | IC50 [6] | IC50 [7]

C[C@@H]1C[C@@H]([C@H](O)CC2CC(=O)NC(=O)C2)C(=O)[C@@H](C)C1 [CYCLOHEXIMIDE]
Not Active: IC50 (Neutrophil elastase) | IC50 [1] | Ki [1] | IC50 [2] | IC50 [3] | IC50 [4] | IC50 [5] | IC50 [6] | IC50 [7]

CN(C)/N=N/c1[nH]cnc1C(N)=O [DACARBAZINE]
Not Active: IC50 (Neutrophil elastase) | IC50 [1] | Ki [1] | IC50 [2] | IC50 [3] | IC50 [4] | IC50 [5] | IC50 [6] | IC50 [7]

COc1ccc2c(c1)[C@]13CCCC[C@@H]1[C@H](C2)N(C)CC3 [DEXTROMETHORPHAN]
Not Active: IC50 (Neutrophil elastase) | IC50 [1] | Ki [1] | IC50 [2] | IC50 [3] | IC50 [4] | IC50 [5] | IC50 [6] | IC50 [7]

CC(=O)Nc1c(I)c(NC(C)=O)c(I)c(C(=O)O)c1I [DIATRIZOIC ACID]
Not Active: IC50 (Neutrophil elastase) | IC50 [1] | Ki [1] | IC50 [2] | IC50 [3] | IC50 [4] | IC50 [5] | IC50 [6] | IC50 [7]

COP(=O)(OC)OC=C(Cl)Cl [DICHLORVOS]
Not Active: IC50 (Neutrophil elastase) | IC50 [1] | Ki [1] | IC50 [2] | IC50 [3] | IC50 [4] | IC50 [5] | IC50 [6] | IC50 [7]

O=C(O)Cc1ccccc1Nc1c(Cl)cccc1Cl [DICLOFENAC]
Not Active: IC50 (Neutrophil elastase) | IC50 [1] | Ki [1] | IC50 [2] | IC50 [3] | IC50 [4] | IC50 [5] | IC50 [6] | IC50 [7]
